One experiment concerns the target T1, WEE1 (Homo sapiens, UniProt P30291).
T1 construct: purchased Thermo Fisher PR7373A
As to the kind of experiment: Selectivity versus WEE1 assay (ADP-Glo enzymatic assay). It is filed as biochemical. The settings on record: for IC50: ADP-Glo; for PKMYT1 vs. WEE1 selectivity: fold difference in selectivity for PKMYT1 over WEE1. The essentials:
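ADP-Glo luminescent read-out after a 60-min, 26 °C kinase reaction of 15 nM WEE1 with 30 µM ATP, in HEPES pH 7.5 buffer containing MgCl2, EGTA, Brij-35 and 1% DMSO. IC50 accepted only when replicate values agree within 3-fold and curve fit r2 exceeds 0.9.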

The target in the next experiment is T2, Human PKMYT1 (Homo sapiens, UniProt Q99640).
T2 construct: Human PKMYT1 75-362 was cloned as a TEV cleavable 6xHis fusion; 6xHis (TEV cleavable) (cleaved yes); made in house; host or cells: bacterial cells
T2 sequence (Q99640 75-362): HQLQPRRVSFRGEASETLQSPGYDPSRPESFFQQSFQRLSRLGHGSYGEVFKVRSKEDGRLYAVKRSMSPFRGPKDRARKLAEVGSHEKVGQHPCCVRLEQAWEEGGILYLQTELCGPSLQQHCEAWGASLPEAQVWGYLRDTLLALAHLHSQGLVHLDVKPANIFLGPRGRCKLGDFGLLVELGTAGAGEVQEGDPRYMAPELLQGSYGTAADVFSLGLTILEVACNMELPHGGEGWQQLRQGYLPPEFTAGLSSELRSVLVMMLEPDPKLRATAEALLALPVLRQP
As to the kind of experiment: PKMYT1 biochemical ADP-Glo enzymatic assay. The settings on record: ADP-Glo. In outline:
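IC50 values come from 10-point 3-fold series, with replicates required within 3-fold and r2 >0.9. ADP formed by PKMYT1 intrinsic ATPase (500 uM ATP, 60 min, 26° C.) was quantified by ADP-Glo luminescence. The enzyme was the TEV-cleaved kinase domain 75-362 at 15 nM, in HEPES pH 7.5 buffer.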

The mark [1] stands for this setting: PKMYT1 kinase domain 15 nM, banded values.
The mark [2] stands for this setting: 15 nM WEE1, 60 minutes at 26° C., banded.
Setting [3] is: banded, ">N" = at least in this band but could be higher.
The mark [4] stands for this setting: 15 nM PKMYT1 kinase domain, 500 µM ATP, 60 minutes at 26° C., banded.

T1 sequence (P30291 whole entry): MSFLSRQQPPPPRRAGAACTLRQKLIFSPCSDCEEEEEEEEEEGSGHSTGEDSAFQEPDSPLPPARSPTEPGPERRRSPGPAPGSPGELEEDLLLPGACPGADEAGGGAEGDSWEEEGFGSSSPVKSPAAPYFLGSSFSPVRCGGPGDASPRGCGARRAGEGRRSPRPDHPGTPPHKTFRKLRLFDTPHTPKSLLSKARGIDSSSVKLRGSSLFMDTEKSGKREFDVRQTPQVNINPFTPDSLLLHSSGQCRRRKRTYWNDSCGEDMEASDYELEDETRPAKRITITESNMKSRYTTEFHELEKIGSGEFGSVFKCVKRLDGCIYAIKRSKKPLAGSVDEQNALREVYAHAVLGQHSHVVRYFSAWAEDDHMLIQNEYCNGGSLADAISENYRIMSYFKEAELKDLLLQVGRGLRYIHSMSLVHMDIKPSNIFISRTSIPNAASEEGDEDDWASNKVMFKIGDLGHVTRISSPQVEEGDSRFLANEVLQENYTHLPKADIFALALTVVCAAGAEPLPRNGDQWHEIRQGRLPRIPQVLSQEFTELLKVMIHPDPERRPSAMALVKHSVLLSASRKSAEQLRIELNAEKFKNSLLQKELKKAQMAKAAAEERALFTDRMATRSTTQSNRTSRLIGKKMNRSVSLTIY

Turning to `Cc1ccc(O)c(C)c1NC(=O)c1cnc(Nc2cc(Br)n(C)n2)s1` [BAA-494, 2-((5-Bromo-1-methyl-1H-pyrazol-3-yl)amino)-N-(3-hydroxy-2,6-dimethylphenyl)thiazole-5-carboxamide], the IC50 against WEE1 (WEE1 15 nM, banded values) is above 11000 nM; against Human PKMYT1 (setting [1]), 50 to 1000 nM. Further, on WEE1 (banded), the “PKMYT1 vs. WEE1 selectivity” value was “X (100-<1000 fold)”.
Turning to `Cc1ccc(O)c(C)c1NC(=O)c1cnc(Nc2ccn(CC(=O)N3CCC3)n2)s1` [BAA-175, 2-[[1-[2-(azetidin-1-yl)-2-oxo-ethyl]pyrazol-3-yl]amino]-N-(3-hydroxy-2,6-dimethyl-phenyl)thiazole-5-carboxamide], the values for the IC50 against WEE1 (setting [2]) and against Human PKMYT1 (setting [4]) were above 11000 nM and below 50 nM, respectively. Also, at WEE1 (setting [3]), the “PKMYT1 vs. WEE1 selectivity” value was “Y (1000-5000 fold)”.
On to `Cc1ccc(O)c(C)c1NC(=O)c1cnc(Nc2ccn(CC(=O)N3CCN(C)CC3)n2)s1` [BAA-034], for which the IC50 on WEE1 (setting [2]) is 1000 to 11000 nM; on Human PKMYT1 (setting [4]), below 50 nM. Besides, the “PKMYT1 vs. WEE1 selectivity” value at WEE1 (setting [3]) was “X (100-<1000 fold)”.
In the same order, the values of `CCNc1ncc(C(=O)Nc2c(C)ccc(O)c2C)s1` [BAA-060, 2-(ethylamino)-N-(3-hydroxy-2,6-dimethyl-phenyl)thiazole-5-carboxamide] are above 11000 nM, 50 to 1000 nM and “>X (100-<1000 fold)”.
`Cc1ccc(O)c(C)c1NC(=O)c1cnc(Nc2nc3ccccc3o2)s1` [BAA-044, 2-(1,3-benzoxazol-2-ylamino)-N-(3-hydroxy-2,6-dimethyl-phenyl)thiazole-5-carboxamide]: the figures for the IC50 against WEE1 (setting [2]) and against Human PKMYT1 (setting [4]) were above 11000 nM and 50 to 1000 nM, respectively. Further, the “PKMYT1 vs. WEE1 selectivity” value at WEE1 (setting [3]) is on record as “>X (100-<1000 fold)”.
For `Cc1ccc(O)c(C)c1NC(=O)c1cnc(Nc2ccn(CC(=O)NC(C)(C)CO)n2)s1` [BAA-138, 2-[1-[2-[(2-hydroxy-1,1-dimethyl-ethyl)amino]-2-oxo-ethyl]pyrazol-3-ylJamino]-N-(3-hydroxy-2,6-dimethyl-phenyl)thiazole-5-carboxamide] the same measures were above 11000 nM, 50 to 1000 nM and “X (100-<1000 fold)”.
Consider `Cc1ccc(O)c(C)c1NC(=O)c1cnc(Nc2nn(C)c3cccc(F)c23)s1` [BAA-444, 2-((4-fluoro-1-methyl-1H-indazol-3-yl)amino)-N-(3-hydroxy-2,6-dimethylphenyl)thiazole-5-carboxamide], for which the IC50 on WEE1 (WEE1 15 nM, banded values) was above 11000 nM; against Human PKMYT1 (setting [1]) it was below 50 nM. In addition, the “PKMYT1 vs. WEE1 selectivity” value at WEE1 (banded) was “X (100-<1000 fold)”.
For `Cc1ccc(O)c(C)c1NC(=O)c1cnc(NCCNC(=O)OC(C)(C)C)s1` [BAA-068, tert-butyl N-[2-[5-[(3-hydroxy-2,6-dimethyl-phenyl)carbamoyl]thiazol-2-yllamino]ethyl]carbamate], the IC50 against WEE1 (setting [2]) was above 11000 nM; against Human PKMYT1 (setting [4]), 50 to 1000 nM. Also, on WEE1 (setting [3]), the “PKMYT1 vs. WEE1 selectivity” value was “>X (100-<1000 fold)”.
Regarding `Cc1ccc(O)c(C)c1NC(=O)c1cnc(Nc2ccn(CC(=O)NCC(C)(C)O)n2)s1` [BAA-146], the IC50 at WEE1 (setting [2]) is above 11000 nM; against Human PKMYT1 (setting [4]), below 50 nM. In addition, the “PKMYT1 vs. WEE1 selectivity” value at WEE1 (setting [3]) is on record as “Y (1000-5000 fold)”.
For `CCN(C)C(=O)N1CC[C@@H](n2ccc(Nc3ncc(C(=O)Nc4c(C)ccc(O)c4C)s3)n2)C1` [BAA-111, 2-[[1-[(3R)-1-[Ethyl(methyl)carbamoyl]pyrrolidin-3-yl]pyrazol-3-yl]amino]-N-(3-hydroxy-2,6-dimethyl-phenyl)thiazole-5-carboxamide], the IC50 on WEE1 (setting [2]) is above 11000 nM; against Human PKMYT1 (setting [4]), 50 to 1000 nM. The “PKMYT1 vs. WEE1 selectivity” value on WEE1 (setting [3]) is on record as “>Y (1000-5000 fold)”.
For `Cc1ccc(O)c(C)c1NC(=O)c1cnc(Nc2ncc[nH]2)s1` [BAA-030, N-(3-hydroxy-2,6-dimethyl-phenyl)-2-(1H-imidazol-2-ylamino)thiazole-5-carboxamide] the same measures were above 11000 nM, 1000 to 11000 nM and “>W (10-<100 fold)”.
In the same order, the values of `Cc1ccc(O)c(C)c1NC(=O)c1cnc(Nc2ccc(S(=O)(=O)C(F)(F)F)cc2)s1` [BAA-285, N-(3-hydroxy-2,6-dimethylphenyl)-2-((4. ((trifluoromethyl)sulfonyl)phenyl)amino) thiazole-5-carboxamide] are above 11000 nM, 1000 to 11000 nM and “W (10-<100 fold)”.
With `Cc1ccc(O)c(C)c1NC(=O)c1cnc(Nc2nc3c(s2)COCC3)s1` [BAA-029, 2-(6,7-dihydro-4H-pyrano[4,3-d]thiazol-2-ylamino)-N-(3-hydroxy-2,6-dimethyl-phenyl)thiazole-5-carboxamide], the IC50 against WEE1 (setting [2]) is above 11000 nM; at Human PKMYT1 (setting [4]), 50 to 1000 nM. Also, the “PKMYT1 vs. WEE1 selectivity” value on WEE1 (setting [3]) was “X (100-<1000 fold)”.
As to `Cc1ccc(O)c(C)c1NC(=O)c1cnc(NCCC(=O)N2CCOCC2)s1` [BAA-078, N-(3-hydroxy-2,6-dimethyl-phenyl)-2-[(3-morpholino-3-oxo-propyl)amino]thiazole-5-carboxamide], the IC50 at WEE1 (setting [2]) is above 11000 nM; against Human PKMYT1 (setting [4]), 50 to 1000 nM. For the same compound, the “PKMYT1 vs. WEE1 selectivity” value on WEE1 (setting [3]) is on record as “>X (100-<1000 fold)”.
Regarding `Cc1ccc(O)c(C)c1NC(=O)c1cnc(Nc2ccn([C@@H]3CCN(C(=O)Cc4cccs4)C3)n2)s1` [BAA-098], the IC50 at WEE1 (setting [2]) was above 11000 nM; against Human PKMYT1 (setting [4]) it was 50 to 1000 nM. Besides, the “PKMYT1 vs. WEE1 selectivity” value at WEE1 (setting [3]) is “>X (100-<1000 fold)”.
For the compound `Cc1c(O)ccc(Br)c1NC(=O)c1cnc(Nc2ccn(C)n2)s1` [BAA-498, N-(6-bromo-3-hydroxy-2-methylphenyl)-2-((1-methyl-1H-pyrazol-3-yl)amino)thiazole-5-carboxamide], the IC50 lay in the range of 1000 to 11000 nM on WEE1 (WEE1 15 nM, banded values) and 50 to 1000 nM on Human PKMYT1 (setting [1]). Further, the “PKMYT1 vs. WEE1 selectivity” value on WEE1 (banded) is “W (10-<100 fold)”.
Take `Cc1ccc(O)c(C)c1NC(=O)c1cnc(NCCCN2CCS(=O)(=O)CC2)s1` [BAA-072, 2-[3-(1,1-dioxo-1,4-thiazinan-4-yl)propylamino]-N-(3-hydroxy-2,6-dimethyl-phenyl)thiazole-5-carboxamide]: the half-maximal inhibitory concentration (IC50) at WEE1 (setting [2]) is above 11000 nM; at Human PKMYT1 (setting [4]), 50 to 1000 nM. Further, the “PKMYT1 vs. WEE1 selectivity” value at WEE1 (setting [3]) is listed as “>X (100-<1000 fold)”.
For the compound `COc1ccc2cc(Nc3ncc(C(=O)Nc4c(C)ccc(O)c4C)s3)nn2c1` [BAA-242, N-(3-Hydroxy-2,6-dimethylphenyl)-2-((6-methoxypyrazolo[1,5-a]pyridin-2-yl)amino)thiazole-5-carboxamide], the results for the IC50 at WEE1 (setting [2]) and at Human PKMYT1 (setting [4]) were above 11000 nM and 50 to 1000 nM, respectively. Further, on WEE1 (setting [3]), the “PKMYT1 vs. WEE1 selectivity” value is “Y (1000-5000 fold)”.
As to `Cc1ccc(O)c(C)c1NC(=O)c1cnc(Nc2cc(C(N)=O)nn2C)s1` [BAA-131, 2-[(5-Carbamoyl-2-methyl-pyrazol-3-yl)amino]-N-(3-hydroxy-2,6-dimethyl-phenyl)thiazole-5-carboxamide], the IC50 against WEE1 (setting [2]) is above 11000 nM; against Human PKMYT1 (setting [4]), below 50 nM. Besides, at WEE1 (setting [3]), the “PKMYT1 vs. WEE1 selectivity” value is reported as “Y (1000-5000 fold)”.
On to `CCCn1ccc(Nc2ncc(C(=O)Nc3c(C)ccc(O)c3C)s2)n1` [BAA-006, N-(3-hydroxy-2,6-dimethyl-phenyl)-2-[(1-propylpyrazol-3-yl)amino]thiazole-5-carboxamide], for which the values for the IC50 against WEE1 (setting [2]) and against Human PKMYT1 (setting [4]) were above 11000 nM and 50 to 1000 nM, respectively. Also, at WEE1 (setting [3]), the “PKMYT1 vs. WEE1 selectivity” value is “X (100-<1000 fold)”.
In the same order, the values of `Cc1ccc(O)c(C)c1NC(=O)c1cnc(Nc2ccn(CC(=O)NCCO)n2)s1` [BAA-147, N-(3-hydroxy-2,6-dimethyl-phenyl)-2-[[1-[2-(2-hydroxyethylamino)-2-oxo-ethyl]pyrazol-3-yl]amino]thiazole-5-carboxamide] are above 11000 nM, below 50 nM and “Y (1000-5000 fold)”.
`Cc1ccc(O)c(C)c1NC(=O)c1cnc(Nc2nccc(-c3ccc(Cl)cc3)n2)s1` [BAA-293, 2-((4-(4-chlorophenyl)pyrimidin-2-yl)amino)-N-(3-hydroxy-2,6-dimethylphenyl)thiazole-5-carboxamide]: the IC50 was above 11000 nM against WEE1 (setting [2]) and below 50 nM at Human PKMYT1 (setting [4]). In addition, the “PKMYT1 vs. WEE1 selectivity” value at WEE1 (setting [3]) is reported as “Y (1000-5000 fold)”.
In the same order, the values of `Cc1ccc(O)c(C)c1NC(=O)c1cnc(NCCO)s1` [BAA-062, N-(3-hydroxy-2,6-dimethyl-phenyl)-2-(2-hydroxyethylamino)thiazole-5-carboxamide] are above 11000 nM, 1000 to 11000 nM and “>W (10-<100 fold)”.
In the same order, the values of `Cc1ccc(O)c(C)c1NC(=O)c1cnc(Nc2ccn([C@@H]3CCN(C(=O)C(F)(F)c4ccccc4)C3)n2)s1` [BAA-099, 2-[[1-[(3R)-1-(2,2-Difluoro-2-phenyl-acetyl)pyrrolidin-3-yl]pyrazol-3-yl]amino]-N-(3-hydroxy-2,6-dimethyl-phenyl)thiazole-5-carboxamide] are above 11000 nM, 50 to 1000 nM and “>X (100-<1000 fold)”.

Values taken from patent US20260297042A1, “BIARYLAMIDE DERIVATIVES AND THEIR USE AS PKMYT1 INHIBITORS” (CANCER RESEARCH TECHNOLOGY LIMITED, priority 2023, published 2026).
